Columns and labels:
Format in all cases: cell-based, Blumea balsamifera
[1] = system: B. balsamifera somatic cells; assay: Effects of different colchicine concentrations on induction of adventitious tetraploid buds from root segments; settings: for Induction rate %: MS Medium with 1.0 mg/L 6-BA, 0.05 mg/L NAA, root segment about 4.0 cm, 60 days
Excerpt: (§1) In the examples, effective root segment refers to uncontaminated root segment; induction rate refers to the percentage of the total number of adventitious tetraploid buds formed by induction accounting for the total number of diploid explants, and the calculation formula is: induction rate (%)=(total number of adventitious tetraploid buds/total number of diploid explants)×100%. Chimera rate (%)=(total number of adventitious buds of chimera/total number of adventitious buds)×100%.
MS Medium was used as a basal medium, which was supplemented with 1.0 mg/L 6-BA, 0.05 mg/L NAA, 30 g/L sucrose, 6 g/L agar, and colchicine of different concentrations (50, 70, 90, 120, and 150 mg/L, respectively). Culture media were prepared individually, and segmented root tissues (with a root segment length of about 4.0 cm) were inoculated. Chromosome ploidy identification was conducted on the formed adventitious buds after 60 days. The number of adventitious tetraploid buds was counted, and the doubling induction rate was calculated.

[2] = system: root explants of diploid B. balsamifera; assay: Effects of different NAA concentrations on induction of adventitious tetraploid buds from root segments; settings: for Induction rate %: MS Medium with 1.0 mg/L 6-BA, 120 mg/L colchicine, root segment about 4.0 cm, 60 days
Excerpt: as §1
MS Medium was used as a basal medium, which was supplemented with 1.0 mg/L 6-BA, 120 mg/L colchicine, 30 g/L sucrose, 6 g/L agar, and NAA of different concentrations (0, 0.025, 0.05, 0.075, and 0.1 mg/L, respectively, 0 mg/L as the control group). Culture media were prepared individually, and segmented root tissues (with a root segment length of about 4.0 cm) were inoculated. Chromosome ploidy identification was conducted on adventitious buds after 60 days. The number of adventitious tetraploid buds was counted, and the induction rate was calculated.

[3] = system: B. balsamifera somatic cells; assay: Effects of different 6-BA concentrations on induction of adventitious tetraploid buds from root segments; settings: for Induction rate %: MS Medium with 0.05 mg/L NAA, 120 mg/L colchicine, root segment about 6.0 cm, 60 days
Excerpt: as §1
MS Medium was used as a basal medium, which was supplemented with 0.05 mg/L NAA, 120 mg/L colchicine, 30 g/L sucrose, 6 g/L agar, and 6-BA of different concentrations (0, 1.0, 1.5, and 2.0 mg/L, respectively, 0 mg/L as the control group). Culture media were prepared individually, segmented root tissues (with a root segment length of about 6.0 cm) were inoculated, and contaminated root explants were excluded after 60 days. The number of tetraploid buds was counted, and the doubling efficiency was calculated.

Work on `COc1cc2c(c(OC)c1OC)-c1ccc(OC)c(=O)cc1[C@@H](NC(C)=O)CC2` [Colchicine, colchicine] yielded an Induction rate % ([1]; colchicine 50 mg/L) of 0%, an Induction rate % ([1]; colchicine 70 mg/L) of 0% and an Induction rate % ([1]; colchicine 90 mg/L) of 2.08%. For the same compound, the “effect of inducing root explants of diploid B. balsamifera to form adventitious tetraploid buds” value ([1]; colchicine 120 mg/L, compared with 50, 70, 90 and 150 mg/L) was “optimal”, the Induction rate % ([1]; colchicine 120 mg/L) was 10.42% and the Induction rate % ([1]; colchicine 150 mg/L) was 4.17%.
For `O=C(O)Cc1cccc2ccccc12` [NAA, 1-naphthaleneacetic acid], the Induction rate % ([2]; NAA 0.025 mg/L) was 2.08%, the doubling effect ([2]; NAA 0.05 mg/L, compared with 0, 0.025, 0.075 and 0.1 mg/L) was “optimal” and the Induction rate % ([2]; NAA 0.05 mg/L) was 10.42%. The Induction rate % ([2]; NAA 0.075 mg/L) was 4.17% and the Induction rate % ([2]; NAA 0.1 mg/L) was 3.13%.
For `c1ccc(CNc2ncnc3nc[nH]c23)cc1` [6-BA, 6-benzylaminopurine], the “effect of inducing the doubling of the somatic cells of the root explants and dedifferentiating into adventitious tetraploid buds” value ([3]; 6-BA 1.0 mg/L, compared with 0, 1.5 and 2.0 mg/L) was “optimal”, the “Induction rate %” value ([3]; 6-BA 1.0 mg/L) was 7.75% and the “Induction rate %” value ([3]; 6-BA 1.5 mg/L) was 5.5%. For the same compound, the “Induction rate %” value ([3]; 6-BA 2.0 mg/L) was 4.17%.

Reference: patent US11800842B2, “Method for obtaining adventitious tetraploid bud of Blumea balsamifera” (Tropical Crops Genetic Resources Institute, Chinese Academy …, priority 2021, dated 2023)
